For orientation: pIC50 means the IC50 on a negative log10 scale, so that one unit is a factor of ten. A lower pIC50 goes with a high IC50.

pIC50: −log10 of the molar value.

Target in one experiment: not listed separately
Description: Ability to inhibit the binding of [125I]CCK-8 to Cholecystokinin type B receptor in guinea pig cortex.
For `O=C(Nc1ccc(Cl)cc1)NC1N=C(c2ccccc2)c2ccccc2N(CC(=O)N2CCCC2)C1=O` (configuration not stated), the pIC50 was 9.55.
Still for that read-out and setting: next, `CCOC(=O)CN1C(=O)C(NC(=O)Nc2ccc(Cl)cc2)N=C(c2ccccc2)c2ccccc21` (configuration not stated): 9.00.

Target in another experiment: not listed separately
The experiment can be described thus: Ability to inhibit the binding of [125I]-gastrin to gastric glands in guinea pig.
The compound `O=C(Nc1ccc(Cl)cc1)NC1N=C(c2ccccc2)c2ccccc2N(CC(=O)N2CCCC2)C1=O` (configuration not stated) had a pIC50 of 9.30.
Same read-out and setting: next, `CCOC(=O)CN1C(=O)C(NC(=O)Nc2ccc(Cl)cc2)N=C(c2ccccc2)c2ccccc21` (configuration not stated): 8.48.

The target in the next experiment is T1, Cholecystokinin receptor type A (Rattus norvegicus, UniProt P30551).
T1 sequence (P30551 whole entry): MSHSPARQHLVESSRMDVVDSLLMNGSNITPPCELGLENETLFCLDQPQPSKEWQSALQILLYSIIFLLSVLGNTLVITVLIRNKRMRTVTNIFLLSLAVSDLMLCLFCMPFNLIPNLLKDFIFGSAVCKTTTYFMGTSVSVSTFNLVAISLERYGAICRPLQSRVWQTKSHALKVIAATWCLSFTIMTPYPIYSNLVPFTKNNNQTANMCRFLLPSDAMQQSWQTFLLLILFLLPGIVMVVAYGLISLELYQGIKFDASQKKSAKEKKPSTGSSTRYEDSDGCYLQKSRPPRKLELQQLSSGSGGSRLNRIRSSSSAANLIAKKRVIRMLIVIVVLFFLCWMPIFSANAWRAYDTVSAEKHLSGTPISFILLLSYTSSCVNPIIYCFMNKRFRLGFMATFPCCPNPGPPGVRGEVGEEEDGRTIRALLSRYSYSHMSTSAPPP
The experiment can be described thus: Ability to inhibit the binding of [125I]CCK-8 to Cholecystokinin type A receptor in rat pancreas.
The compound `Cc1cccc(NC(=O)NC2CCc3ccccc3N(CC(=O)N3CCCC3)C2=O)c1` (configuration not stated) showed a pIC50 of 6.89.
Turning to `Cc1cccc(NC(=O)NC2CCc3ccccc3N(CC(=O)OC(C)(C)C)C2=O)c1` (configuration not stated), the pIC50 was 6.85.
`Cc1cccc(NC(=O)N[C@H]2CCc3ccccc3N(CC(=O)N3CCCC3)C2=O)c1`: the pIC50 is 6.00.
Still for that read-out and setting: then `CC(C)(C)OC(=O)CN1C(=O)C(NC(=O)c2ccc3ccccc3c2)CCc2ccccc21` (configuration not stated), with 8.12; and `Cc1cccc(NC(=O)N[C@@H]2CCc3ccccc3N(CC(=O)N3CCCC3)C2=O)c1`, with 7.52.
The same measure, in the same setting: next, `COc1cccc(NC(=O)NC2CCc3ccccc3N(CC(=O)OC(C)(C)C)C2=O)c1` (configuration not stated): 7.21; `COc1cccc(NC(=O)N[C@@H]2CCc3ccccc3N(CC(=O)N3CCCC3)C2=O)c1`: 7.55; `COc1cccc(NC(=O)N[C@H]2CCc3ccccc3N(CC(=O)N3CCCC3)C2=O)c1`: 6.47.

The values above are taken from ChEMBL document CHEMBL1126473, “Benzolactams as non-peptide cholecystokinin receptor ligands” (Bioorg Med Chem Lett, 1993).
